Legend:
rat livers = experiment: Initial partial freezing protocol of rat livers at −6° C., SNMP recovery; settings: glycerol 6% vol/vol with Snomax 1 g/L, 3-OMG 200 mM, PEG 5%
whole rat livers = experiment: Optimized partial freezing of whole rat livers: ex vivo simulated transplantation (normothermic reperfusion with whole blood); settings: −10° C., 1 day
Method: Within this standardized protocol, we first compared GLY, EG, and PG as main permeating CPA using a freezing temperature of −10° C. and storage duration of 1 day (FIG. 37). Using PG as the CPA, we subsequently tested the effect of freezing temperature (−10° C. vs −15° C.) and storage duration (1 day vs 5 days) on liver viability after partial freezing using the same protocol (FIG. 38).
The Affinity Pixie Oxygenator is a clinical grade oxygenator that has graduated fiber bundle density technology and radial flow path that is designed to create a more uniform blood flow, enhance gas transfer, reduce pressure drops, and decrease prime volume. Moreover, it also contains a Balance® Biosurface that contains a hydrophilic polymer coating to reduce platelet adhesion and activation. This adaptation to the oxygenator is essential since recirculating whole blood during simulated transplantation may trigger coagulation and inflammatory events that are not representative of in vivo events and could skew observed outcomes.
Machine perfusion system: The perfusion system provides a continuous perfusion through the portal vein that is pressure, flow, and temperature controlled. The perfusates can be either recirculated or flushed with a single pass though the liver and perfusates can be changed without interrupting perfusion. The setup and operation of the perfusion system is described in detail elsewhere (see, e.g., ref. 15). There were two oxygenators used in this study, including the Radnoti (Cat #130144) and Affinity Pixie Oxygenator (Cat #BBP241). Due to the flexibility and low cost of the Radnoti oxygenator, it was first used for initial optimization and characterization studies, including determining the effect of permeating CPAs (GLY vs EG vs PG; FIG. 37), temperature (−10 vs −15° C., FIG. 38) storage duration (1 vs 5 days, FIG. 38), and warm ischemic injury.
Preconditioning during SNMP: Directly after procurement the livers were perfused with 250 ml of SNMP preloading solution (see Table 7 for composition of all solutions). The perfusion temperature was set at 21° C. and perfusion was initiated at 5 ml/min. […] Next, the livers were perfused for 30 additional minutes to allow for cellular uptake of 3-O-methyl-D-glucose (3-OMG).
Preloading of CPAs during HMP: The SNMP preloading solution was gradually switched to HMP preloading solution in […] increments, each with 10% decreasing and 10% increasing volumetric fractions of SNMP and HMP preloading solution, respectively. During this switch, the perfusion temperature was lowered to 4° C., and flows were adjusted to a maximum perfusion pressure of 3 mmHg. Dependent on the flowrate, the solution switch took 10-15 minutes. The HMP preloading was continued for 30 additional minutes to ensure complete equilibration of the solution throughout the peripheral liver tissue.
This was done in 10 fractions of 10 ml, each with 10% decreasing and 10% increasing volumetric fractions of HMP preloading solution and storage solution, respectively. During this switch, the perfusion temperature was maintained at 4° C., and the flowrates were lowered to ensure a maximum perfusion pressure of 3 mmHg. The final 15 ml fraction of 100% storage solution was loaded at a fixed flowrate of 0.5 ml/min.
Partial freezing: After loading of the storage solution, the liver was placed in a bag with 50 ml fresh storage solution and suspended in a pre-cooled chiller (Engel, Schwertberg, Austria). Depending on the experimental condition the chiller temperature was pre-cooled to −10° C. or −15° C. and the liver stored for […] 5 days.

OCC(O)CO [GLY, glycerol]
vascular resistance (mean±SD) (rat livers): 0.11±0.05 mmHg*min/ml*g
edema (rat livers; one-step hand syringe loading): > 60%
bile production during simulated transplantation (whole rat livers): did not produce bile
lactate clearance after first hour of simulated transplantation (whole rat livers): not observed
microscopic tissue structure (H&E, blinded pathologist) (whole rat livers): most unfavorable results
oxygen uptake during simulated transplantation (whole rat livers; at 2 h): 17.9 ± 5.86 µL O2/min/g
tissue adenylate energy charge (whole rat livers; at 2 h): 0.064±0.039
weight gain during simulated transplantation (whole rat livers; at 2 h): 19.00±16.63%
AST levels (whole rat livers; at 2 h of simulated transplantation): 1528±388 U/L
